Source: EP0388528B1, “Carboximidamide derivatives” (KIRIN BEER KABUSHIKI KAISHA, priority 1988, dated 1990)

Tests used:
[1] = tested on: spontaneous hypertensive rats (SHR); test: Hypotensive effect on spontaneous hypertensive rats (intravenously) (Referential Example 2)-2); assay type: in vivo; details: Rattus norvegicus, iv, anesthetized SHR, dose decreasing mean blood pressure by 20%; read-out: ED₂₀ (mg/kg, i.v.)
Experimental: Rats were anesthetized with urethane-α-chloralose (1 g/kg - 25 mg/kg; intraperitoneally). Mean blood pressure was measured by a pressure transducer through a cannula inserted into the carotid artery. The compound was cumulatively administered every 30 minutes through the cannula inserted into the jagular vein. The change in blood pressure was expressed as percent of the blood pressure before the administration of the compound. And the ED₂₀ value, which was the dose required for decreasing blood pressure to an extent of 20%, was calculated from the dose-response curve.

isolated rat aortae = test: Vasorelaxing effect on the isolated rat aortae (Referential Example 2)-1); details: inhibition of contraction induced by 40 mM KCl, read-out: IC₅₀ Value
Experimental: The compounds of the present invention were tested for their physiological activities by measuring the tension of isolated rat aortae isometrically.
Thoracic aortae obtained from male Wistar rats (weighing 250-350 g) were cut into ring segments about 3 mm long. The ring preparation was placed in an organ bath filled with 10 ml of Krebs-Ringer solution which was maintained at 37°C and gassed with 95% O₂ - 5% CO₂.
The preparation in the organ bath was allowed to equilibrate under resting tension 1 g. After equilibration period, the solution in the organ bath was replaced with an isotonic solution containing 40 mM KCl to contract the preparation.
After the contraction induced by KCl had reached plateau, the concentration-response relationship for the test compound was determined by means of cumulative addition.
The relaxation response of the test compounds was expressed as the percent inhibition of the contraction induced by KCl, and the IC₅₀ value, which is a concentration required for inhibiting the contraction induced by KCl to an extent of 50%, was calculated by the Probit method from the concentration-response curve.

isolated heart of rats = test: Myocardiac injury induced by re-perfusion after ischemia (isolated heart of rats); details: 1×10⁻⁶ mole/min, after 30 minutes re-perfusion, mean ± SD
Experimental: The cardiac muscle protecting effect of the compound of the present invention was tested by using the isolated heart of rats [test compound: N-cyano-N′-(2-nitroxyethyl)-3-pyridinecarboximidamide (compound (13))]. The Langendorff's method was used in the same manner as in the aforementioned Referential Example 1)-6. The isolated heart was perfused with a perfusate for 30 minutes and then with a perfusate containing the test compound for 10 minutes, and perfusion was stopped so that the heart was in the so-called "ischemic state". Pacing was performed during the ischemia. […] Parameters of cardiac function after the onset of re-perfusion was monitored for 30 minutes, and the heart was quickly freezed. The amount of ATP in the heart muscle was extracted with perchloric acid and determined by HPLC. Nicorandil was used as a control.
The recovery rate of the cardiac function (heart rate × left ventricular pressure) after onset of reperfusion was calculated based on the cardiac function prior to the perfusion of the compound (13) and nicorandil as 100%. The amount of ATP in the heart muscle was also determined.

isolated rat heart = test: Effect on isolated rat heart (Langendorff's method); details: 1 × 10⁻⁸ mol/min, mean ± S.D.
Experimental: The effect of the compound of the present invention on heart of rats was examined by using the Langendorff's method [test compound: N-cyano-N′-(2-nitroxyethyl)-3-pyridinecarboximidamide (compound (13))]. Hearts were excised from male rats (weighing 250-350 g) and perfused at 80 cmH₂O in a Langendorff fashion. Krebs-Hensaleit bicarbonate solution (pH 7.4, 37°C) containing an 11 mM glucose which was oxygenated with 95% O₂- 5% CO₂ gas mixture was used as a perfusate. The left ventricular pressure was recorded by inserting a latex baloon into the left ventricle, and heart rate was determined from the pulse of it. Coronary perfusate flow was also measured with an electromagnetic flowmeter. The experiments were carried out by perfusing a perfusate containing the compound (13) for 10 minutes after an initial equilibration period for 30 minutes. As the control compound, nicorandil which has an effect opening potassium channel and is similar to the test compound in structure was used. The changes in the coronary perfusate flow and the cardiac function (heart rate × left ventricular pressure) caused by these compounds were expressed as percent changes from the preperfusion values of the compound (13) or nicorandil.

beagles = test: Hemodynamic profile in beagles (intravenously); assay type: in vivo; details: peak percent change from pretreatment
Experimental: Hemodynamic profile of the compound of the present invention was investigated in beagles anesthetized with pentobarbital (30 mg/kg, intravenously) [test compound: N-cyano-N′-(2-nitroxyethyl)-3-pyridinecarboximidamide (compound (13))]. The thorax was opened under artificial respiration. After administering heparin in an amount of 500 units/kg, a Moravitz's cannula was introduced into the coronary sinus via the right atrium. The coronary sinus outflow was returned to the right external jagular vein. The coronary sinus outflow was measured by an electromagnetic flowmeter (MFU-2100, manufactured by Nihon Kohden) connected to the Moravitz's cannula. A cannula was inserted into the aortic arch through the subclavian artery to measure aortic blood pressure. The aortic blood pressure was measured with a pressure transducer (Nihon Kohden, TP-200T). Heart rate was monitored with a heart rate counter with R waves of electrocardiogram. All parameters were recorded on a thermosensitive recorder (WT-685G, manufactured by Nihon Kohden).
The compound was administered through the cannula inserted into the right femoral vein. Nicorandil was used as a control. As for respective measurement items, peak changes were expressed as percent change from the pretreatment values of the compound (13) or nicorandil.

SMILES	ED20 [1] [mg/kg]	IC50 (isolated rat aortae) [µM]	Amount of ATP in the heart muscle (µmole/g of dry weight) (isolated heart of rats)	Coronary Perfusate Flow (% change) (isolated rat heart; perfusion 10 minutes)	Cardiac Function (isolated rat heart; heart rate × left ventricular pressure, percent change from preperfusion) [%]	Coronary Blood Flow (beagles; i.v. 100.0 µg/kg) [%]	Heart Rate (beagles; i.v. 100.0 µg/kg) [%]	Mean Aortic Blood Pressure (beagles; i.v. 100.0 µg/kg) [%]	Coronary Blood Flow (beagles; i.v. 300.0 µg/kg) [%]	Heart Rate (beagles; i.v. 300.0 µg/kg) [%]	Mean Aortic Blood Pressure (beagles; i.v. 300.0 µg/kg) [%]
N#CNC(=NCCO[N+](=O)[O-])c1ccco1 [(62), N-cyano-N′-(2-nitroxyethyl)-2-furancarboximidamide]	0.025	26									
N#CNC(=NCCO[N+](=O)[O-])c1cccs1 [(66), N-cyano-N′-(2-nitroxyethyl)-2-thiophenecarboximidamide]	0.115	9.6									
O=C(NCCO[N+](=O)[O-])c1cccnc1 [Nicorandil, nicorandil, reference compound]			5.93±0.49 (4) µmole/g of dry weight	3.3±5.6	3.7±6.7	20.3±5.1	0.2±2.1	-21.3±1.9	84.9±10.8	-20.7±1.9	-43.1±5.4
